This assay relates to Human ES cells (KhES-1-derived). In words: Adhesion culture of cells dispersed from human ES cell-derived aggregates with added factors; level of epithelial formation observed under a microscope (Example 5). It counts as cell-based. The settings on record: observed at day 40, compared to the control free of the addition. As to the method: Human ES cells (KhES-1-derived) were cultured according to the methods described in “Ueno, M. et al. PNAS 2006, 103(25), 9554-9559” and “Watanabe, K. et al. Nat Biotech 2007, 25, 681-686”. As the medium, a medium obtained by adding 20% KSR KNOCKOUT™ Serum Replacement; Invitrogen), 0.1 mM 2-mercaptoethanol, 2 mM L-glutamine, 1× non-essential amino acid, 5 ng/ml bFGF to DMEM/F12 medium (Sigma) was used. The cultured ES cells were dispersed into single cells using TrypLE Express (Invitrogen), and the above-mentioned cultured ES cells were suspended in 100 μl of a serum-free medium at 1.2×10^4 cells per one well of a non-cell adhesive 96 well culture plate (sumilon spheroid plates, SUMITOMO BAKELITE Co., Ltd.) to allow for rapid formation of aggregates and subjected to culture at 37° C., 5% CO2. As the serum-free medium therefor, a serum-free medium obtained by adding 10% KSR, 450 μM 1-monothioglycerol, 1× Chemically defined lipid concentrate, 20 μM Y27632 to a 1:1 mixture of F-12 medium and IMDM medium was used. At day 3 from the start of the floating culture, BMP4 was added al a concentration 1.5 nM, and floating culture was continued. A half amount of the culture medium in the well was exchanged every 3 days with the above-mentioned medium not supplemented with a substance acting on the BMP signal transduction pathway. […]

As to `Cc1c[nH]c(-c2cnc(NCCNc3ccc(C#N)cn3)nc2-c2ccc(Cl)cc2Cl)n1` [CHIR99021], the “level of epithelial formation (pigmentation of retinal pigment epithelial cells)” value (3 μM added at day 24 from the start of the floating culture, FIG. 5B) was “differentiated into darker retinal pigment epithelial cells”.

B1: recombinant human BMP4 protein: BMP protein, a substance acting on the BMP signal transduction pathway (protein, UniProt P12644 293-408, looked up)
Bone morphogenetic protein 4: SPKHHSQRARKKNKNCRRHSLYVDFSDVGWNDWIVAPPGYQAFYCHGDCPFPLADHLNSTNHAIVQTLVNSVNSSIPKACCVPTELSAISMLYLDEYDKVVLKNYQEMVVEGCGCR
For the molecule B1, the “level of epithelial formation (uniformity of epithelium)” value (1 nM added at day 24, FIG. 5E) is on record as “more uniform epithelium”.

Values taken from patent US10760050B2, “Method for producing retinal pigment epithelial cells” (SUMITOMO CHEMICAL COMPANY, LIMITED, priority 2013, dated 2020).
